Test results: US9226500B2, “Pesticidal compositions and processes related thereto” (Dow AgroSciences LLC, priority 2012, dated 2016)

Assays:
[1] = system: Cabbage Looper (Trichoplusia ni); assay: Bioassay on Cabbage Looper (CL), 128-well diet tray assay; assay type: in vivo; details: 168 h, percent mortality of second instar larvae, 50 μg/cm^2 on artificial diet, five to seven days, 25° C., read-out: CL Rating
Protocol: Certain molecules disclosed in this document were tested against BAW, CEW and CL using procedures described in the following examples. In the reporting of the results, the “BAW & CEW & CL Rating Table” was used (See Table Section).
Bioassays on CL (Trichoplusia ni)
Bioassays on CL were conducted using a 128-well diet tray assay. One to five second instar CL larvae were placed in each well (3 mL) of the diet tray that had been previously filled with 1 mL of artificial diet to which 50 μg/cm^2 of the test compound (dissolved in 50 μL of 90:10 acetone-water mixture) had been applied (to each of eight wells) and then allowed to dry. Trays were covered with a clear self-adhesive cover, and held at 25° C., 14:10 light-dark for five to seven days. Percent mortality was recorded for the larvae in each well; activity in the eight wells was then averaged.
“Table 4: Assay Results Part 2” (See Table Section).

[2] = system: Beet Armyworm (Spodoptera exigua); assay: Bioassay on Beet Armyworm (BAW), 128-well diet tray assay; assay type: in vivo; details: Spodoptera exigua, 168 h; percent mortality of second instar larvae, 50 μg/cm^2 on artificial diet, five to seven days, 25° C.; read-out: BAW Rating

| SMILES | pest or weed control at 50 µg/cm2, 50 µg/cm2 [1] [%] | pest or weed control at 50 µg/cm2, 50 µg/cm2 [2] [%] |
| --- | --- | --- |
| C[C@@H](NC(=O)c1ccc(/C=C/C(c2cc(Cl)c(Cl)c(Cl)c2)C(F)(F)F)cc1C(F)(F)F)C(=O)NCC(F)(F)F (mixture of isomers) [Compound F20] | 50 to 100 | 50 to 100 |
| CC(C)(NC(=O)c1ccc(/C=C/C(c2cc(Cl)c(Cl)c(Cl)c2)C(F)(F)F)cc1Cl)C(=O)NCC(F)(F)F (centres unmarked) [Compound F2] | 50 to 100 | 50 to 100 |
| Cc1cc(/C=C/C(c2cc(Cl)c(Cl)c(Cl)c2)C(F)(F)F)ccc1C(=O)NC(C)(C)C(=O)NCC(F)(F)F (centres unmarked) [Compound F3] | 50 to 100 | 50 to 100 |
| CC(C)(NC(=O)c1ccc(/C=C/C(c2cc(Cl)c(Cl)c(Cl)c2)C(F)(F)F)cc1C(F)(F)F)C(=O)NCC(F)(F)F (centres unmarked) [Compound F4] | 50 to 100 | 50 to 100 |
| C[C@H](NC(=O)c1ccc(/C=C/C(c2cc(Cl)c(Cl)c(Cl)c2)C(F)(F)F)cc1Br)C(=O)NCC(F)(F)F (some centres unmarked) [Compound F5] | 50 to 100 | 50 to 100 |
| C[C@@H](NC(=O)c1ccc(/C=C/C(c2cc(Cl)c(Cl)c(Cl)c2)C(F)(F)F)cc1Br)C(=O)NCC(F)(F)F (some centres unmarked) [Compound F6] | 50 to 100 | 50 to 100 |
| Cc1cc(/C=C/C(c2cc(Cl)c(Cl)c(Cl)c2)C(F)(F)F)ccc1C(=O)N[C@H](C)C(=O)NCC(F)(F)F (some centres unmarked) [Compound F7] | 50 to 100 | 50 to 100 |
| CCC(NC(=O)c1ccc(/C=C/C(c2cc(Cl)c(Cl)c(Cl)c2)C(F)(F)F)cc1Br)C(=O)NCC(F)(F)F (centres unmarked) [Compound F8A] | 50 to 100 | 50 to 100 |
| CC[C@H](NC(=O)c1ccc(/C=C/C(c2cc(Cl)c(Cl)c(Cl)c2)C(F)(F)F)cc1Br)C(=O)NCC(F)(F)F (some centres unmarked) [Compound F8] | 50 to 100 | 50 to 100 |
| Cc1cc(/C=C/C(c2cc(Cl)c(Cl)c(Cl)c2)C(F)(F)F)ccc1C(=O)N[C@@H](C)C(=O)NCC(F)(F)F (some centres unmarked) [Compound F9] | 50 to 100 | 50 to 100 |
| C[C@@H](NC(=O)c1ccc(/C=C/C(c2cc(C(F)(F)F)cc(C(F)(F)F)c2)C(F)(F)F)cc1Br)C(=O)NCC(F)(F)F (some centres unmarked) [Compound F14] | 50 to 100 | 50 to 100 |
| CCC(NC(=O)c1ccc(/C=C/C(c2cc(Cl)c(Cl)c(Cl)c2)C(F)(F)F)cc1C)C(=O)NCC(F)(F)F (centres unmarked) [Compound F15A] | 50 to 100 | 50 to 100 |
| CC[C@H](NC(=O)c1ccc(/C=C/C(c2cc(Cl)c(Cl)c(Cl)c2)C(F)(F)F)cc1C)C(=O)NCC(F)(F)F (some centres unmarked) [Compound F15] | 50 to 100 | 50 to 100 |
| CCC(NC(=O)c1ccc(/C=C/C(c2cc(Cl)c(Cl)c(Cl)c2)C(F)(F)F)cc1C(F)(F)F)C(=O)NCC(F)(F)F (centres unmarked) [Compound F16A] | 50 to 100 | 50 to 100 |
| CC[C@H](NC(=O)c1ccc(/C=C/C(c2cc(Cl)c(Cl)c(Cl)c2)C(F)(F)F)cc1C(F)(F)F)C(=O)NCC(F)(F)F (some centres unmarked) [Compound F16] | 50 to 100 | 50 to 100 |
| Cc1cc(/C=C/C(c2cc(Br)cc(Br)c2)C(F)(F)F)ccc1C(=O)N[C@H](C)C(=O)NCC(F)(F)F (some centres unmarked) [Compound F17] | 50 to 100 | 50 to 100 |
| C[C@H](NC(=O)c1ccc(/C=C/C(c2cc(Cl)c(Cl)c(Cl)c2)C(F)(F)F)cc1C(F)(F)F)C(=O)NCC(F)(F)F (some centres unmarked) [Compound F18] | 50 to 100 | 50 to 100 |
| C[C@@H](NC(=O)c1ccc(/C=C/C(c2cc(Br)cc(Br)c2)C(F)(F)F)cc1Br)C(=O)NCC(F)(F)F (some centres unmarked) [Compound F19] | 50 to 100 | 50 to 100 |
| C[C@@H](NC(=O)c1ccc(/C=C/[C@@H](c2cc(Cl)c(Cl)c(Cl)c2)C(F)(F)F)cc1C(F)(F)F)C(=O)NCC(F)(F)F [Compound F20B, N—((R)-1-Oxo-1-((2,2,2-trifluoroethyl)amino)propan-2-yl)-4-((E)-4,4,4-trifluoro-3-(3,4,5-trichlorophenyl)but-1-en-1-yl)-2-(trifluoromethyl)benzamide] | 50 to 100 | 50 to 100 |
| C[C@@H](NC(=O)c1ccc(/C=C\C(c2cc(Cl)c(Cl)c(Cl)c2)C(F)(F)F)cc1C(F)(F)F)C(=O)NCC(F)(F)F (some centres unmarked) [Compound F20C] | 50 to 100 | 50 to 100 |
| C[C@@H](NC(=O)c1ccc(/C=C/C(c2cc(Br)cc(Br)c2)C(F)(F)F)cc1C(F)(F)F)C(=O)NCC(F)(F)F (some centres unmarked) [Compound F21] | 50 to 100 | 50 to 100 |
| C[C@@H](NC(=O)c1ccc(/C=C/C(c2cccc(C(F)(F)F)c2)C(F)(F)F)cc1Br)C(=O)NCC(F)(F)F (some centres unmarked) [Compound F22] | 50 to 100 | 50 to 100 |
